Results reported in patent US20260256792A1, “TREATMENT OF CHRONIC SPONTANEOUS URTICARIA BY ADMINISTERING (R)-2-[3-[4-AMINO-3-(2-FLUORO-4-PHENOXY-PHENYL)PYRAZOLO[3,4-D]PYRIMIDIN-1-YL]PIPERIDINE-1-CARBONYL]-4-METHYL-4-[4-(OXETAN-3-YL)PIPERAZIN-1-YL]PENT-2-ENENITRILE” (priority 2023, published 2026).

Tested on: moderate-to-severe chronic spontaneous urticaria (CSU)
Experiment: Phase 2 CSU study: itch severity score over 7 days (ISS7)
Type: in vivo, human
Settings: for ISS7 Median / ISS7 Mean (SD): End of Study
Excerpt: The study comprises a 12 week, randomized, double-blind, placebo-controlled, multi-center, dose-ranging efficacy and safety phase, followed by a 40 week open label extension (OLE) phase (see FIG. 1). The study consists of three phases and an optional OLE phase. […] Clinically, CSU is characterized by the spontaneous and recurrent appearance of pruritic hives. The proposed primary endpoints were the UAS7 at Week 12 in EU and EU reference countries and the ISS7 in the US. Regardless of where a participant was from, all assessments were the same. The UAS7 score is a composite score containing both the HSS7 and the ISS7. This allowed a global assessment of the two key components of urticaria: hives and itch. […] The UAS is a validated PRO measure. […] The daily UAS scores range from 0 to 6 point/day. […] Patients were to complete the UAS using the e-diary. […] The following secondary endpoints were to be analyzed using the same approach as for the primary endpoint: • Change from baseline in UAS7 at Week 4 • Change from baseline in UAS7 at Week 12 (for US and US reference countries) • Change from baseline in ISS7 at Week 12 (except US and US reference countries) • Change from baseline in HSS7 at Week 12

[1] = 400 mg TID, Prior Omalizumab Use
[2] = ITT Population, 400 mg BID, Week 2
[3] = ITT Population, 400 mg QPM, Week 3
[4] = ITT Population, 400 mg QPM, Week 5
[5] = ITT Population, 400 mg TID, Week 1
[6] = ITT Population, 400 mg TID, Week 12
[7] = ITT population, 400 mg BID, Week 1
[8] = ITT population, 400 mg BID, Week 3
[9] = ITT population, 400 mg BID, Week 4
[10] = ITT population, 400 mg BID, Week 5
[11] = ITT population, 400 mg BID, Week 6
[12] = ITT population, 400 mg BID, Week 7
[13] = ITT population, 400 mg BID, Week 8
[14] = ITT population, 400 mg BID, Week 9
[15] = ITT population, 400 mg BID, Week 10
[16] = ITT population, 400 mg BID, Week 11
[17] = ITT population, 400 mg BID, Week 12
[18] = ITT population, 400 mg QPM, Week 1
[19] = ITT population, 400 mg QPM, Week 2

In the case of CC(C)(C=C(C#N)C(=O)N1CCC[C@@H](n2nc(-c3ccc(Oc4ccccc4)cc3F)c3c(N)ncnc32)C1)N1CCN(C2COC2)CC1 [rilzabrutinib, (R)-2-[3-[4-amino-3-(2-fluoro-4-phenoxy-phenyl)pyrazolo[3,4-d]pyrimidin-1-yl]piperidine-1-carbonyl]-4-methyl-4-[4-(oxetan-3-yl)piperazin-1-yl]pent-2-enenitrile], the “ISS7 Median” value (400 mg QPM, Omalizumab-Naïve) is reported as 2.00, the “ISS7 Mean (SD)” value (400 mg TID, Omalizumab-Naïve) is reported as 11.40 (6.11) and the “ISS7 Mean (SD)” value [1] is reported as 9.50 (6.36). The “ISS7 Median” value [1] was 9.50, the “Imputed non-responder n (%) (ISS7 reduction of 5 points or more)” value [2] was 2 (4.9) n (%) and the “Non-responder n (%) (ISS7 reduction of 5 points or more)” value [2] was 19 (46.3) n (%). For the same compound, the “OR for rilzabrutinib vs. placebo (ISS7 reduction of 5 points or more)” value [2] was 2.693, the “RRD (%) for rilzabrutinib vs. placebo (ISS7 reduction of 5 points or more)” value (from here on “RRD (%) … (ISS7 reduction of 5 points or more)”) [2] was 23.6% and the “Responder n (%) (ISS7 reduction of 5 points or more)” value [2] was 22 (53.7) n (%). The “Imputed non-responder n (%) (ISS7 reduction of 5 points or more)” value [3] was 0 n (%), the “Non-responder n (%) (ISS7 reduction of 5 points or more)” value [3] was 20 (52.6) n (%) and the “OR for rilzabrutinib vs. placebo (ISS7 reduction of 5 points or more)” value [3] was 1.881. For the same compound, the “RRD (%) … (ISS7 reduction of 5 points or more)” value [3] was 15.9%, the “Responder n (%) (ISS7 reduction of 5 points or more)” value [3] was 18 (47.4) n (%) and the “Imputed non-responder n (%) (ISS7 reduction of 5 points or more)” value [4] was 2 (5.3) n (%). For the same compound, the “Non-responder n (%) (ISS7 reduction of 5 points or more)” value [4] was 21 (55.3) n (%), the “OR for rilzabrutinib vs. placebo (ISS7 reduction of 5 points or more)” value [4] was 0.781 and the “RRD (%) … (ISS7 reduction of 5 points or more)” value [4] was 6.2%. The “Responder n (%) (ISS7 reduction of 5 points or more)” value [4] was 17 (44.7) n (%), the “Imputed non-responder n (%) (ISS7 reduction of 5 points or more)” value [5] was 0 n (%) and the “Non-responder n (%) (ISS7 reduction of 5 points or more)” value [5] was 14 (34.1) n (%). For the same compound, the “OR for rilzabrutinib vs. placebo (ISS7 reduction of 5 points or more)” value [5] was 6.428, the “RRD (%) … (ISS7 reduction of 5 points or more)” value [5] was 42.3% and the “Responder n (%) (ISS7 reduction of 5 points or more)” value [5] was 27 (65.9) n (%). For the same compound, the “Imputed non-responder n (%) (ISS7 reduction of 5 points or more)” value [6] was 11 (26.8) n (%), the “Non-responder n (%) (ISS7 reduction of 5 points or more)” value [6] was 18 (43.9) n (%) and the “OR for rilzabrutinib vs. placebo (ISS7 reduction of 5 points or more)” value [6] was 1.371. For the same compound, the “RRD (%) … (ISS7 reduction of 5 points or more)” value [6] was 7.9%, the “Responder n (%) (ISS7 reduction of 5 points or more)” value [6] was 23 (56.1) n (%) and the “Imputed non-responder n (%) (ISS7 reduction of 5 points or more)” value [7] was 1 (2.4) n (%). For the same compound, the “Non-responder n (%) (ISS7 reduction of 5 points or more)” value [7] was 21 (51.2) n (%), the “OR for rilzabrutinib vs. placebo (ISS7 reduction of 5 points or more)” value [7] was 3.262 and the “RRD (%) … (ISS7 reduction of 5 points or more)” value [7] was 25.5%. The “Responder n (%) (ISS7 reduction of 5 points or more)” value [7] was 20 (48.8) n (%), the “Imputed non-responder n (%) (ISS7 reduction of 5 points or more)” value [8] was 1 (2.4) n (%) and the “Non-responder n (%) (ISS7 reduction of 5 points or more)” value [8] was 19 (46.3) n (%). The “OR for rilzabrutinib vs. placebo (ISS7 reduction of 5 points or more)” value [8] was 2.451, the “RRD (%) … (ISS7 reduction of 5 points or more)” value [8] was 21.5% and the “Responder n (%) (ISS7 reduction of 5 points or more)” value [8] was 22 (53.7) n (%). The “Imputed non-responder n (%) (ISS7 reduction of 5 points or more)” value [9] was 4 (9.8) n (%), the “Non-responder n (%) (ISS7 reduction of 5 points or more)” value [9] was 19 (46.3) n (%) and the “RRD (%) … (ISS7 reduction of 5 points or more)” value [9] was 5.6%. The “Responder n (%) (ISS7 reduction of 5 points or more)” value [9] was 22 (53.7) n (%), the “Imputed non-responder n (%) (ISS7 reduction of 5 points or more)” value [10] was 5 (12.2) n (%) and the “Non-responder n (%) (ISS7 reduction of 5 points or more)” value [10] was 18 (43.9) n (%). For the same compound, the “RRD (%) … (ISS7 reduction of 5 points or more)” value [10] was 2.7%, the “Responder n (%) (ISS7 reduction of 5 points or more)” value [10] was 23 (56.1) n (%) and the “Imputed non-responder n (%) (ISS7 reduction of 5 points or more)” value [11] was 4 (9.8) n (%). The “Non-responder n (%) (ISS7 reduction of 5 points or more)” value [11] was 20 (48.8) n (%), the “RRD (%) … (ISS7 reduction of 5 points or more)” value [11] was 2.7% and the “Responder n (%) (ISS7 reduction of 5 points or more)” value [11] was 21 (51.2) n (%). For the same compound, the “Imputed non-responder n (%) (ISS7 reduction of 5 points or more)” value [12] was 4 (9.8) n (%), the “Non-responder n (%) (ISS7 reduction of 5 points or more)” value [12] was 19 (46.3) n (%) and the “OR for rilzabrutinib vs. placebo (ISS7 reduction of 5 points or more)” value [12] was 1.258. For the same compound, the “RRD (%) … (ISS7 reduction of 5 points or more)” value [12] was 5.5%, the “Responder n (%) (ISS7 reduction of 5 points or more)” value [12] was 22 (53.7) n (%) and the “Imputed non-responder n (%) (ISS7 reduction of 5 points or more)” value [13] was 5 (12.2) n (%). For the same compound, the “Non-responder n (%) (ISS7 reduction of 5 points or more)” value [13] was 16 (39.0) n (%), the “OR for rilzabrutinib vs. placebo (ISS7 reduction of 5 points or more)” value [13] was 1.388 and the “RRD (%) … (ISS7 reduction of 5 points or more)” value [13] was 8.3%. The “Responder n (%) (ISS7 reduction of 5 points or more)” value [13] was 25 (61.0) n (%), the “Imputed non-responder n (%) (ISS7 reduction of 5 points or more)” value [14] was 9 (22.0) n (%) and the “Non-responder n (%) (ISS7 reduction of 5 points or more)” value [14] was 19 (46.3) n (%). For the same compound, the “OR for rilzabrutinib vs. placebo (ISS7 reduction of 5 points or more)” value [14] was 1.233, the “RRD (%) … (ISS7 reduction of 5 points or more)” value [14] was 5.6% and the “Responder n (%) (ISS7 reduction of 5 points or more)” value [14] was 22 (53.7) n (%). For the same compound, the “Imputed non-responder n (%) (ISS7 reduction of 5 points or more)” value [15] was 10 (24.4) n (%), the “Non-responder n (%) (ISS7 reduction of 5 points or more)” value [15] was 22 (53.7) n (%) and the “OR for rilzabrutinib vs. placebo (ISS7 reduction of 5 points or more)” value [15] was 0.786. For the same compound, the “RRD (%) … (ISS7 reduction of 5 points or more)” value [15] was −6.2%, the “Responder n (%) (ISS7 reduction of 5 points or more)” value [15] was 19 (46.3) n (%) and the “Imputed non-responder n (%) (ISS7 reduction of 5 points or more)” value [16] was 9 (22.0) n (%). For the same compound, the “Non-responder n (%) (ISS7 reduction of 5 points or more)” value [16] was 19 (46.3) n (%), the “OR for rilzabrutinib vs. placebo (ISS7 reduction of 5 points or more)” value [16] was 0.837 and the “RRD (%) … (ISS7 reduction of 5 points or more)” value [16] was −4.5%. For the same compound, the “Responder n (%) (ISS7 reduction of 5 points or more)” value [16] was 22 (53.7) n (%), the “Imputed non-responder n (%) (ISS7 reduction of 5 points or more)” value [17] was 14 (34.1) n (%) and the “Non-responder n (%) (ISS7 reduction of 5 points or more)” value [17] was 21 (51.2) n (%). For the same compound, the “OR for rilzabrutinib vs. placebo (ISS7 reduction of 5 points or more)” value [17] was 1.063, the “RRD (%) … (ISS7 reduction of 5 points or more)” value [17] was 1.6% and the “Responder n (%) (ISS7 reduction of 5 points or more)” value [17] was 20 (48.8) n (%). For the same compound, the “Imputed non-responder n (%) (ISS7 reduction of 5 points or more)” value [18] was 0 n (%), the “Non-responder n (%) (ISS7 reduction of 5 points or more)” value [18] was 25 (65.8) n (%) and the “OR for rilzabrutinib vs. placebo (ISS7 reduction of 5 points or more)” value [18] was 1.855. The “RRD (%) … (ISS7 reduction of 5 points or more)” value [18] was 12.7%, the “Responder n (%) (ISS7 reduction of 5 points or more)” value [18] was 13 (34.2) n (%) and the “Imputed non-responder n (%) (ISS7 reduction of 5 points or more)” value [19] was 0 n (%). The “Non-responder n (%) (ISS7 reduction of 5 points or more)” value [19] was 23 (60.5) n (%), the “OR for rilzabrutinib vs. placebo (ISS7 reduction of 5 points or more)” value [19] was 1.662 and the “Responder n (%) (ISS7 reduction of 5 points or more)” value [19] was 15 (39.5) n (%). The “Imputed non-responder n (%) (ISS7 reduction of 5 points or more)” value (ITT population, 400 mg QPM, Week 4) was 1 (2.6) n (%).
